Assay results reported in US20240376126A1, “PRMT5 INHIBITOR AND THE USE THEREOF” (CYTOSINLAB THERAPEUTICS CO., LTD., priority 2022, published 2024).

Each compound was assayed on HCT116 MTAP WT cells (assay: Proliferation inhibition of HCT116 cells in vitro (CellTiter Glo, 6 days)). Conditions: Homo sapiens, HCT-116, 144 h, read-out: Cell proliferation inhibition rate HCT116 MTAP WT IC50 (nm).
Assay type: cell-based
Excerpt: (§1) Biological Test Example 2 Proliferation Inhibition of HCT116 and HCT116 MTAP-KO Cells In Vitro
(§2) HCT116 cell line was purchased from the Chinese Academy of Sciences Cell Bank, and the MTAP gene was knocked out by CRISPR/Cas9 technology to obtain HCT116-MTAP-KO cell line.
(§3) McCoy's 5A medium (Gibco, catalog No. 16600082), fetal bovine serum (Gibco, catalog No. 10099141C), penicillin-streptomycin double antibody (Gibco, catalog No. 15140122), pancreatic enzyme (Gibco, catalog No. 25200056), CellTiter Glo assay kit (Promega, catalog No. G7572), 384-well transparent flat-bottomed black walled cell culture plate (Corning, catalog No. 3764), ultra micro sampler (Tecan, catalog No. D300e), Multimode reader (Biotek, catalog No. SynergyHTX)
(§4) • 1. Cell culture: HCT116 and HCT116-MTAP-KO cells were cultured in McCoy'5A medium+10% fetal bovine serum+1% penicillin-streptomycin double antibody; to ensure that they were always in the logarithmic growth phase and the cell viability greater than 95%. • 2. Compound concentration gradient preparation: The compound to be tested was added to a 384-well plate using an ultra micro sampler, starting from 30 μM (HCT116 cells) or 3 μM (HCT116-MTAP-KO cells), and diluted with DMSO at 3 times for a total of 9 concentrations and set up three duplicate wells. • 3. Treatment of cells with compounds: Trypsin-digested HCT116 or HCT116-MTAP-KO cell suspension was added to the 384-well plates spotted with the compounds to be tested at 40 μL per well, i.e., 100 cells per well, and the final concentration of DMSO was 0.4%. The cell culture plate was incubated at 37° C. in a 5% CO2 incubator for 6 days. • 4. Detection: 20 μL of CellTiter Glo reagent was added to each well of the cell culture plate and incubated at room temperature for 30 minutes. A multimode reader was used to detect the luminescence signal at […]. • 5. Data analysis:
(§5) The data was fitted with GraphPad Prism 8.0 software using a four parameter inhibitor-reaction model to obtain the […] (half inhibitory concentration) of the test compounds.
(§6) The first column represents cell proliferation inhibition rate HCT116 MTAP WT IC50 (nm), and the second column represents cell proliferation inhibition rate HCT116-MTAP null IC50 (nm): […]
In the case of CCN(Cc1cn2ccccc2n1)C(=O)c1cc2c(cn1)nc(N)c1cnc(C)n12 [Example 69], the IC50 is reported as 1000 to 10000 nM.
Compound Cc1ncc2c(N)nc3cc(F)c(C(=O)N4C(C)COC[C@@H]4c4cn5cc(C(F)(F)F)ccc5n4)cc3n12 (some centres unmarked) [Example 172] has an IC50 of 100 to 1000 nM.
Compound Cc1nn(C)cc1N(Cc1cn2cc(C(F)(F)F)ccc2n1)C(=O)c1ccc2nc(N)c3c(c2c1)CO[C@H]3C [Example 90] has an IC50 of 100 to 1000 nM.
Work on COCC(C1CC1)N(Cc1nc2ccccc2[nH]1)C(=O)c1ccc2nc(N)c3c(c2c1)CCC3 (centres unmarked) [Example 129] yielded an IC50 of 1000 to 10000 nM.
With CCN(Cc1nc2ccccn2c1C)C(=O)c1cc2c(cc1F)nc(N)c1cnn(C)c12 [Example 30] the IC50 was 1000 to 10000 nM.
CCN(Cc1nc2ccc(C(F)(F)F)cc2[nH]1)C(=O)c1ccc2nc(N)c3c(c2c1)COC3C (centres unmarked) [Example 134] showed an IC50 of 1000 to 10000 nM.
Compound Cn1ncc(F)c1N(Cc1cn2cc(C(F)(F)F)ccc2n1)C(=O)c1ccc2nc(N)c3cnn(C)c3c2c1 [Example 115] has an IC50 of 100 to 1000 nM.
For Cc1cc2cc(C(=O)N(Cc3cn4ccccc4n3)C(C)c3cccc(F)n3)ccc2nc1N (centres unmarked) [Example 32], the IC50 was 1000 to 10000 nM.
Cc1ncc2c(N)nc3cc(F)c(C(=O)N(Cc4nc5ccc(C(F)(F)F)cc5[nH]4)CC(C)C)cc3n12 [Example 276] gave an IC50 of 1000 to 10000 nM.
CCN(Cc1cn2c(C)cccc2n1)C(=O)c1cc2c(cc1F)nc(N)c1c(C)ncn12 [Example 272] gave an IC50 of 1000 to 10000 nM.
Compound Cc1ncn2c1c(N)nc1cc(F)c(C(=O)N(Cc3nc4ccccn4c3F)c3cnn(C)c3)cc12 [Example 205] has an IC50 of 1000 to 10000 nM.
CCN(Cc1cn2ccccc2n1)C(=O)c1ccc2nc(N)c3cnn(C)c3c2c1 [Example 18] showed an IC50 of 1000 to 10000 nM.
With CCn1nccc1N(Cc1cn2cc(C(F)(F)F)ccc2n1)C(=O)c1cc2c(cc1F)nc(N)c1cnc(C)n12 [Example 242] the IC50 was 100 to 1000 nM.
In the case of CC1COCC(c2cn3ccccc3n2)N1C(=O)c1cc2c(cc1F)nc(N)c1cnn(C)c12 (centres unmarked) [Example 19], the IC50 is reported as 100 to 1000 nM.
Cn1nccc1N(Cc1cn2cc(C(F)(F)F)ccc2n1)C(=O)c1ccc2nc(N)c3c(c2c1)OCC3 [Example 112] was tested, and the IC50 was 100 to 1000 nM.
In the case of Cc1ncc2c(N)nc3cc(F)c(C(=O)N(Cc4ccc5c(c4)CCO5)c4cnn(C)c4)cc3n12 [Example 219], the IC50 is reported as 1000 to 10000 nM.
Work on Cc1ncc2c(N)nc3cc(F)c(C(=O)N(Cc4nc5ccc(C(F)(F)F)cc5[nH]4)c4ccnn4C)cc3n12 [Example 245] yielded an IC50 of 1000 to 10000 nM.
Compound CC(C)CN(Cc1cn2cc(C#N)ccc2n1)C(=O)c1cc2c(cc1F)nc(N)c1cnn(C)c12 [Example 20] has an IC50 of 100 to 1000 nM.
Compound COCCN(C(=O)c1cc2c(cc1F)nc(N)c1cnc(C)n12)C(C)c1cn2ccccc2n1 (centres unmarked) [Example 171] has an IC50 of 1000 to 10000 nM.
For COC1CC(N(Cc2cn3ccccc3n2)C(=O)c2cc3c(cc2F)nc(N)c2c(C)ncn23)C1 (centres unmarked) [Example 273], the IC50 was 1000 to 10000 nM.
Cc1ncc2c(N)nc3cnc(C(=O)N(Cc4cn5cc(C(F)(F)F)ccc5n4)c4c(F)cnn4C)cc3n12 [Example 302] showed an IC50 of 100 to 1000 nM.
Cc1ncc2c(N)nc3cc(F)c(C(=O)N(Cc4cn5ccccc5n4)c4cnn(C)c4)cc3n12 [Example 181] was tested, and the IC50 was 1000 to 10000 nM.
Work on COCC(C1CC1)N(Cc1nc2cc(C(F)(F)F)ccc2s1)C(=O)c1ccc2nc(N)c3c(c2c1)CCC3 (centres unmarked) [Example 154] yielded an IC50 of 1000 to 10000 nM.

Same assay, conditions: read-out: Cell proliferation inhibition rate HCT116 MTAP WT IC50 (nm)
Cn1nccc1N(Cc1cn2cc(C(F)(F)F)ccc2n1)C(=O)c1cc2c(cc1F)nc(N)c1cnn(C)c12 [Example 111] showed an IC50 of less than 100 nM.

The compounds below were run on HCT116-MTAP-KO (MTAP null) cells (assay: Proliferation inhibition of HCT116 MTAP-KO cells in vitro (CellTiter Glo, 6 days)). Conditions: HCT116-MTAP null, 144 h, read-out: Cell proliferation inhibition rate HCT116-MTAP null IC50 (nm).
Assay type: cell-based
Excerpt: as §1, §2, §3, §4, §5, §6
In the case of CCN(Cc1cn2ccccc2n1)C(=O)c1cc2c(cn1)nc(N)c1cnc(C)n12 [Example 69], the IC50 is reported as 100 to 1000 nM.
Cc1ncc2c(N)nc3cc(F)c(C(=O)N4C(C)COC[C@@H]4c4cn5cc(C(F)(F)F)ccc5n4)cc3n12 (some centres unmarked) [Example 172] was tested, and the IC50 was less than 100 nM.
Cc1nn(C)cc1N(Cc1cn2cc(C(F)(F)F)ccc2n1)C(=O)c1ccc2nc(N)c3c(c2c1)CO[C@H]3C [Example 90] showed an IC50 of less than 100 nM.
For COCC(C1CC1)N(Cc1nc2ccccc2[nH]1)C(=O)c1ccc2nc(N)c3c(c2c1)CCC3 (centres unmarked) [Example 129], the IC50 was less than 100 nM.
For CCN(Cc1nc2ccccn2c1C)C(=O)c1cc2c(cc1F)nc(N)c1cnn(C)c12 [Example 30], the IC50 was less than 100 nM.
For CCN(Cc1nc2ccc(C(F)(F)F)cc2[nH]1)C(=O)c1ccc2nc(N)c3c(c2c1)COC3C (centres unmarked) [Example 134], the IC50 was less than 100 nM.
With Cn1ncc(F)c1N(Cc1cn2cc(C(F)(F)F)ccc2n1)C(=O)c1ccc2nc(N)c3cnn(C)c3c2c1 [Example 115] the IC50 was less than 100 nM.
Compound Cc1cc2cc(C(=O)N(Cc3cn4ccccc4n3)C(C)c3cccc(F)n3)ccc2nc1N (centres unmarked) [Example 32] has an IC50 of less than 100 nM.
With Cc1ncc2c(N)nc3cc(F)c(C(=O)N(Cc4nc5ccc(C(F)(F)F)cc5[nH]4)CC(C)C)cc3n12 [Example 276] the IC50 was 100 to 1000 nM.
In the case of CCN(Cc1cn2c(C)cccc2n1)C(=O)c1cc2c(cc1F)nc(N)c1c(C)ncn12 [Example 272], the IC50 is reported as 100 to 1000 nM.
With Cc1ncn2c1c(N)nc1cc(F)c(C(=O)N(Cc3nc4ccccn4c3F)c3cnn(C)c3)cc12 [Example 205] the IC50 was less than 100 nM.
Compound CCN(Cc1cn2ccccc2n1)C(=O)c1ccc2nc(N)c3cnn(C)c3c2c1 [Example 18] has an IC50 of less than 100 nM.
CCn1nccc1N(Cc1cn2cc(C(F)(F)F)ccc2n1)C(=O)c1cc2c(cc1F)nc(N)c1cnc(C)n12 [Example 242] gave an IC50 of less than 100 nM.
Compound CC1COCC(c2cn3ccccc3n2)N1C(=O)c1cc2c(cc1F)nc(N)c1cnn(C)c12 (centres unmarked) [Example 19] has an IC50 of less than 100 nM.
Cn1nccc1N(Cc1cn2cc(C(F)(F)F)ccc2n1)C(=O)c1ccc2nc(N)c3c(c2c1)OCC3 [Example 112] showed an IC50 of less than 100 nM.
Cc1ncc2c(N)nc3cc(F)c(C(=O)N(Cc4ccc5c(c4)CCO5)c4cnn(C)c4)cc3n12 [Example 219] was tested, and the IC50 was 100 to 1000 nM.
Compound Cc1ncc2c(N)nc3cc(F)c(C(=O)N(Cc4nc5ccc(C(F)(F)F)cc5[nH]4)c4ccnn4C)cc3n12 [Example 245] has an IC50 of less than 100 nM.
CC(C)CN(Cc1cn2cc(C#N)ccc2n1)C(=O)c1cc2c(cc1F)nc(N)c1cnn(C)c12 [Example 20] gave an IC50 of less than 100 nM.
Compound COCCN(C(=O)c1cc2c(cc1F)nc(N)c1cnc(C)n12)C(C)c1cn2ccccc2n1 (centres unmarked) [Example 171] has an IC50 of 100 to 1000 nM.
With COC1CC(N(Cc2cn3ccccc3n2)C(=O)c2cc3c(cc2F)nc(N)c2c(C)ncn23)C1 (centres unmarked) [Example 273] the IC50 was less than 100 nM.
Cc1ncc2c(N)nc3cnc(C(=O)N(Cc4cn5cc(C(F)(F)F)ccc5n4)c4c(F)cnn4C)cc3n12 [Example 302] gave an IC50 of less than 100 nM.
Work on Cc1ncc2c(N)nc3cc(F)c(C(=O)N(Cc4cn5ccccc5n4)c4cnn(C)c4)cc3n12 [Example 181] yielded an IC50 of 100 to 1000 nM.
COCC(C1CC1)N(Cc1nc2cc(C(F)(F)F)ccc2s1)C(=O)c1ccc2nc(N)c3c(c2c1)CCC3 (centres unmarked) [Example 154] was tested, and the IC50 was 100 to 1000 nM.
Cc1nn(C)cc1N(Cc1cn2cc(C(F)(F)F)ccc2n1)C(=O)c1cc2c(cc1F)nc(N)c1cnn(C)c12 [Example 238] gave an IC50 of 100 to 1000 nM.
Work on Cn1nccc1N(Cc1cn2cc(C(F)(F)F)ccc2n1)C(=O)c1cc2c(cc1F)nc(N)c1cnn(C)c12 [Example 240] yielded an IC50 of less than 100 nM.

Same assay, conditions: read-out: Cell proliferation inhibition rate HCT116-MTAP null IC50 (nm)
For Cn1nccc1N(Cc1cn2cc(C(F)(F)F)ccc2n1)C(=O)c1cc2c(cc1F)nc(N)c1cnn(C)c12 [Example 111], the IC50 was less than 100 nM.
